Data reported in paper PMC5756575, “In Vitro Biotransformation, Safety, and Chemopreventive Action of Novel 8-Methoxy-Purine-2,6-Dione Derivatives” (Applied Biochemistry and Biotechnology, 2017).
“Also recorded” adds a separate entry of the source. Where two headings read alike, the source gives them in different places.

Columns and labels:
[1] = tested on: Cunninghamella echinulata NRRL 1384; assay: Cunninghamella biotransformation assay, C. echinulata; format: in vitro ADME; settings: 0.5 mg/mL, 7-day incubation, LC-MS/MS
Description: (§1) Three different strains of Cunninghamella were used: Cunninghamella echinulata NRRL 1384, Cunninghamella blakesleeana 1908 DMS, and Cunninghamella elegans 1906 DMS. The first was provided by Dr. A.J. Carnell (University of Liverpool, UK), whereas the two remaining were purchased from Deutsche Sammlung von Mikroorganismen und Zellkulturen GmbH (DMSZ, Braunschweig, Germany).
(§2) Cunninghamella strains were cultivated on solid potato dextrose agar (PDA) plates at 28 °C. After 4 days, a liquid fermentation basal medium was prepared by the addition of 6 g of D-glucose, 1.5 g of NaCl, 1.5 g of yeast extract from Saccharomyces cerevisiae, and 1.5 g of K2HPO4 to 300 mL of distilled water. Aliquots of 24.5 mL of medium were inoculated with 300 μL of suspension of fungal spores obtained after wetting colonies in PDA. The fungi were incubated with shaking until the formation of spherical clumps.
(§3) Compounds 2–4 were evaluated in this experiment. Once microorganisms formed spherical clumps in the preliminary incubation, the corresponding tested compound was added to the broth and the mixture was incubated for 7 days. Two control experiments were also performed, in the absence of compound and fungus, respectively. Biotransformation progress was monitored by TLC and by liquid chromatography electrospray ionization-tandem mass spectrometry (LC-MS/MS). Monitoring was performed at four different incubation times: 30 min, 3 days, 5 days, and 7 days.
(§4) To analyze metabolites in LC-MS/MS, an aliquot of 500 μL of filtered sample was taken and extracted with 500 μL of dichloromethane. The organic fraction was dried with sodium sulfate, filtered, and evaporated. The obtained residue was analyzed in LC-MS/MS. At the end of experiment, all the remaining medium was extracted with 25 mL of dichloromethane after separating the fungal clumps by filtration over cellulose filters.
(§5) Agilent 1100 HPLC system (Agilent Technologies, Waldbronn, Germany) equipped with a Xbridge™ C18 analytical column (2.1 × 30 mm, […]; Waters, Dublin, Ireland) was used in the chromatographic separation of LC-MS/MS analysis. An elution gradient of acetonitrile and water, with 0.1% of formic acid, was used as a mobile phase. MS spectra were taken at Applied Biosystems MDS Sciex API 200 triple quadrupole mass analyzer (Concord, Ontario, Canada) with an electrospray ionization (ESI) interface between HPLC and MS.

[2] = tested on: rat liver microsomes; assay: Microsomal stability assay; format: in vitro ADME; settings: rat microsomal biotransformation after 30 min of incubation
Description: Compounds 1 and 3 were studied in a biotransformation assay using rat liver microsomes following procedures described previously. The reagents used in this assay were levallorphan (internal standard) and NADPH-regenerating system, which contained phosphate buffer (pH 7.4), NADP^+, glucose-6-phosphate, and glucose-6-phosphate dehydrogenase. The final protein concentration in the assay was 0.4 mg/mL. Compounds 1 and 3 were tested at a final concentration of 20 μM.
The amount of a parental compound remaining in a solution after biotransformation was monitored using LC-MS/MS as described previously in “Cunninghamella Biotransformation Assay.” Graphs representing ln of percentage of parent compound remaining versus incubation time were drawn to calculate in vitro half-time (t1/2) from the slope of linear regression. To obtain intrinsic clearance (Clint) of a tested compound in rat liver microsomal assay, t1/2 previously calculated was substituted at the equation Clint = [(Vmic/Pmic) × 0.693/t1/2], being Vmic and Pmic the volume of incubation in microliters and the amount of incubated protein in milligrams, respectively.
as §5

[3] = tested on: Cunninghamella elegans 1906 DMS; assay: Cunninghamella biotransformation assay, C. elegans; format: in vitro ADME; settings: 0.5 mg/mL, 7-day incubation, LC-MS/MS
Description: as §1, §2, §3, §4, §5

[4] = tested on: Cunninghamella blakesleeana 1908 DMS; assay: Cunninghamella biotransformation assay, C. blakesleeana; format: in vitro ADME; settings: 0.5 mg/mL, 7-day incubation, LC-MS/MS
Description: as §1, §2, §3, §4, §5

[5] = tested on: Vibrio harveyi BB7M; assay: Vibrio harveyi antimutagenicity assay against NQNO, BB7M; format: cell-based; settings: compound 40 ng/mL + NQNO 40 ng/mL
From the text: (§6) Four Vibrio harveyi strains were used in this study: a wild-type BB7 (naturally found in the Baltic Sea) and three genetically modified strains, namely BB7M (obtained by the introduction of pAB1273 plasmid containing the genes mucA and mucB to enhance the error-prone DNA repair), BB7X (hypersensitive to UV radiation after genetic modification with Tn5TpMCS), and BB7XM (containing the two abovementioned modifications). These strains were kindly provided by Prof. G. Węgrzyn (Department of Molecular Biology, University of Gdańsk, Poland).
(§7) It causes point mutations at the genome as it induces G:C → A:T transitions in Vibrio harveyi strains and in other bacteria such as Escherichia coli and S. typhimurium. […] Next, its working solution was prepared in sterile water, being 40 ng/mL its final concentration.
(§8) Procedure followed in the V. harveyi antimutagenicity assay was similar to the mutagenicity method described before. […] The results were expressed as the inhibition percentage of mutagenic effect, which was calculated with the formula: 100 − [(R 1/R 2) × 100], where R 1 is the number of revertants per plate in the presence of both mutagen and tested substance, and R 2 is the number of revertants per plate in the presence of mutagen. […] S. typhimurium antimutagenicity assay was based on similar assumptions as the V. harveyi antimutagenicity test. In this case, the chemopreventive activity was determined at two concentrations of a tested compounds and a standard mutagen, i.e., 40 and 500 ng/mL.

[6] = tested on: Vibrio harveyi BB7X; assay: Vibrio harveyi antimutagenicity assay against NQNO, BB7X; format: cell-based; settings: compound 40 ng/mL + NQNO 40 ng/mL
From the text: as §6, §7, §8

[7] = tested on: Cunninghamella strains; assay: Cunninghamella biotransformation assay, three strains together and blank without fungus; format: in vitro ADME; settings: three strains, LC-MS/MS
Description: as §1, §2, §3, §4
Agilent 1100 HPLC system (Agilent Technologies, Waldbronn, Germany) equipped with a Xbridge™ C18 analytical column (2.1 × 30 mm, […]; Waters, Dublin, Ireland) was used in the chromatographic separation of LC-MS/MS analysis. […]

[8] = tested on: Vibrio harveyi BB7; settings: BB7, 40 ng/mL
Description: (§9) From them, 0.2 mM working solutions were prepared by dilution with water. […] Working solutions were prepared by 1:100 dilution of stock solution in water, and final compound concentration assayed was 40 ng/mL.
as §6, §7
(§10) To perform the V. harveyi mutagenicity test, 10 μL of a working solution of the tested compound (100 μg/mL) were added to V. harveyi bacterial culture (OD600 = 0.1) in NaCl-containing BOSS liquid medium, being 40 ng/mL the final concentration of the tested compound. […] Then, an inoculum containing 5 × 10^6 cells was added to solid BOSS agar plate supplemented with neomycin sulfate at a final concentration of 100 μg/mL. Samples were left incubating 48 h at 30 °C, and revertant colonies were counted manually.

[9] = tested on: Vibrio harveyi BB7X; settings: 40 ng/mL
Description: as §9, §6, §7, §10

[10] = tested on: Vibrio harveyi BB7M; settings: 40 ng/mL
Description: as §9, §6, §7, §10

[11] = tested on: Vibrio harveyi BB7XM; assay: Vibrio harveyi mutagenicity assay, BB7XM; format: cell-based; settings: 40 ng/mL
Description: as §9, §6, §7, §10

[12] = tested on: Salmonella typhimurium TA100; assay: Ames mutagenicity test; format: cell-based
Description: From them, 0.2 mM working solutions were prepared by dilution with water. […]
(§11) In the Ames test, Salmonella typhimurium TA100 strain was used. This strain has a base-pair substitution that can be reverted by mutations at GC pairs. In addition, it contains mutations at uvrB-bio and rfa genes to eliminate excision repair mechanisms and to make the bacteria more permeable to chemicals, respectively. Finally, TA100 also includes pKM101 plasmid, which enhances both chemical and UV-induced mutagenesis via an increase in the error-prone recombinational DNA repair pathway. TA100 strain of S. typhimurium was provided by Dr. T. Nohmi (Division of Genetics and Mutagenesis, National Institute of Hygienic Sciences, Tokyo, Japan). V. harveyi and S. typhimurium bacterial cultures were maintained at 30 and 37 °C, respectively.
It causes point mutations at the genome as it induces G:C → A:T transitions in Vibrio harveyi strains and in other bacteria such as Escherichia coli and S. typhimurium. […]
S. typhimurium was cultivated in a fresh medium 12 h prior to a test. To perform mutagenicity assay, 100 μL of an overnight culture (containing approx. 1 × 10^8 to 2 × 10^8 bacteria) were inoculated along with 50 μL of a tested compound in 2 mL of top agar supplemented with traces of histidine and of biotin. Then the mixture was added over the surface of GM agar plates and was left incubating 48 h at 37 °C. Afterwards, the colonies were counted manually.

[13] = tested on: Vibrio harveyi BB7; assay: Vibrio harveyi antimutagenicity assay against NQNO, BB7; format: cell-based
From the text: as §6, §7, §8

[14] = tested on: Vibrio harveyi BB7XM; format: cell-based; settings: compound 40 ng/mL + NQNO 40 ng/mL
From the text: as §6, §7, §8

[15] = tested on: Salmonella typhimurium TA100; assay: S. typhimurium antimutagenicity assay against NQNO; format: cell-based; settings: for Number of revertants per plate, Mean ± SD: antimutagenicity, NQNO line = NQNO as a single compound
From the text: as §11, §7, §8

[16] = antimutagenicity, NQNO line = NQNO as a single compound
[17] = TA100, 500 ng/mL (NQNO control stated as 40 ng/mL in method)
[18] = TA100, compound and NQNO 40 ng/mL
[19] = TA100, compound and NQNO 500 ng/mL

**Q.** Which “% of compound/metabolite in C. echinulata” value [1] does the source give for COc1nc2c(c(=O)n(C)c(=O)n2C)n1CCCC(N)=O [3-M1] here?
**A.** 1.5%

**Q.** And the “% content among metabolites” value [2]?
**A.** 100%

**Q.** For COc1nc2c(c(=O)n(C)c(=O)n2C)n1CCCC(=O)NCc1ccccc1O [3-M2], which “% of compound/metabolite in C. echinulata” value [1] is on record?
**A.** 1.6%

**Q.** Which “% of compound/metabolite in C. echinulata” value [1] does the source give for COc1nc2c(c(=O)n(C)c(=O)n2C)n1CCCC(=O)NCc1cccc(O)c1 [3-M3] here?
**A.** 0.3%

**Q.** With COc1nc2c(c(=O)n(C)c(=O)n2C)n1CCCC(=O)NCc1ccc(O)cc1 [3-M4] as the compound, how does the “% of compound/metabolite in C. elegans” value [3] read?
**A.** – – – 0.6%

**Q.** What about the “% of compound/metabolite in C. echinulata” value [1] of the same compound?
**A.** 4.2%

**Q.** What about the “% of compound/metabolite in C. blakesleeana” value [4] of the same compound?
**A.** – – – 4.6%

**Q.** For COc1nc2c(c(=O)n(C)c(=O)n2C)n1CCCC(=O)N1CCN(c2ccc(O)cc2)CC1 [4-M1], which “% of compound/metabolite in C. elegans” value [3] is on record?
**A.** 53.0%

**Q.** What about the “% of compound/metabolite in C. echinulata” value [1] of the same compound?
**A.** 87.6%

**Q.** And the “% of compound/metabolite in C. blakesleeana” value [4]?
**A.** 66.6%

**Q.** What does the source list for COC(=O)Cn1c(OC)nc2c1c(=O)n(C)c(=O)n2C [Compound 2, methyl 2-(8-methoxy-1,3-dimethyl-2,6-dioxo-purin-7-yl)acetate]?
**A.** Number of revertants per plate, Mean ± SD [5, 16]: 45 ± 10; % inhibition of NQNO mutagenicity [5]: 54%; Number of revertants per plate, Mean ± SD [6, 16]: 35 ± 6; % inhibition of NQNO mutagenicity [6]: 68%; biotransformation / detectable metabolites in Cunninghamella model (in words) [7]: did not undergo any biotransformation; also recorded: None of the three Cunninghamella strains evaluated generated detectable metabolites; MI (mutagenicity index) ([8]; mutagenic if MI above 2.0): 1.2; Number of revertants per plate, Mean ± SD ([8]; mutagenicity): 15 ± 2; MI (mutagenicity index) ([9]; mutagenic if MI above 2.0): 1.2; Number of revertants per plate, Mean ± SD ([9]; mutagenicity): 27 ± 2; MI (mutagenicity index) ([10]; mutagenic if MI above 2.0): 1.3; Number of revertants per plate, Mean ± SD ([10]; mutagenicity): 36 ± 9; MI (mutagenicity index) ([11]; mutagenic if MI above 2.0): 1.6; Number of revertants per plate, Mean ± SD ([11]; mutagenicity): 53 ± 8; Number of revertants per plate, Mean ± SD ([12]; TA100, 40 ng/mL): 10 ± 3; MI (mutagenicity index) ([12]; TA100, 40 ng/mL, mutagenic if MI >2.0): 0.3; MI (mutagenicity index) [12, 17]: 0.5; Number of revertants per plate, Mean ± SD [12, 17]: 14 ± 5; % inhibition of NQNO mutagenicity ([13]; BB7, compound 40 ng/mL + NQNO 40 ng/mL): 38%; Number of revertants per plate, Mean ± SD ([13]; antimutagenicity, BB7, compound 40 ng/mL + NQNO 40 ng/mL, NQNO line = NQNO as a single compound): 34 ± 7; chemopreventive (antimutagenic) effect, class ([13]; wild BB7 strain, against NQNO): moderate or a close to moderate; Number of revertants per plate, Mean ± SD [14, 16]: 68 ± 8; % inhibition of NQNO mutagenicity [14]: 12%; % inhibition of NQNO mutagenicity [15, 18]: 92%; % inhibition of NQNO mutagenicity [15, 19]: 91%; Number of revertants per plate, Mean ± SD [15, 18]: 7 ± 2; Number of revertants per plate, Mean ± SD [15, 19]: 9 ± 4
